Test results as given in paper PMC7297445, “Pharmacokinetic/Pharmacodynamic Determination and Preclinical Pharmacokinetics of the β-Lactamase Inhibitor ETX1317 and Its Orally Available Prodrug ETX0282” (ACS Infectious Diseases, 2020).
Read-outs that look alike come from different tables or passages of the source.

Legend:
[1] = Intravenous pharmacokinetics of ETX1317; format: in vivo, rat; details: i.v. 10 mg/kg
Procedure: (§1) Intravenous pharmacokinetics of ETX1317 investigated in jugular vein cannulated male Sprague–Dawley rats (Charles River Laboratories, n = 3/route) at a dose of 10 mg/kg formulated in 0.9% saline. Oral pharmacokinetics of ETX0282 was evaluated at a 10 mg/kg equivalent dose of ETX1317 formulated in 25:75 PEG 400:WFI. The pH of each formulation was verified to fall within a range of 4–7 and were confirmed to be in solution prior to dosing. Potency was verified by LC/MS/MS. Dose volumes were 5 and 10 mL/kg for ETX1317(i.v.) and ETX0282(p.o.), respectively for rats. In both dog (male, 3/route) and monkey (male, 3/route) studies, i.v. and p.o. doses were formulated on 25:75 PEG 400:WFI (pH ∼5) and administered at a dose of ∼1 mg/kg. Dose volume was 1 mL/kg for both routes in dogs and monkeys with the i.v. dose infused over 15 min. For oral doses, gavage tubes were flushed with 10 mL after administration of the dose. i.v. doses were sterile-filtered through 0.22 μm PVDF membrane prior to administration into the cephalic vein.
Blood samples to be processed for plasma using K2EDTA as an anticoagulant were taken at 0.08, 0.17, 0.25, 0.5, 1, 2, 4, and 8 h (i.v.) and 0.25, 0.5, 1, 2, 4, 8, and 24 h (p.o.) post dose in rats. Blood samples collected into 0.5 mL BD microtainers containing 1.0 mg K2EDTA were centrifuged in a microfuge for 10 min, plasma pipetted to 96 well cryo tubes, and stored at −80 °C prior to analysis.
(§2) Urine collection was collected directly into Nalgene bottles placed under metabolism cages with frozen ice packs to chill urine over the collection interval. Urine was collected 0–12, and 12–24 h post-dose. Following collection of each urine sample, the total urine weight was recorded and 3 mL aliquots were retained for LC/MS/MS analysis.
(§3) Non-compartmental analysis of time vs concentration data for ETX1317, ETX0282, CPD, and CPDP was completed using WinNonlin 8.1 (Pharsite Corporation, Mountain View CA). The maximum concentration (Cmax) was the highest observed concentration; Tmax was the earliest time at which Cmax occurred; and the elimination half-life was estimated as ln 2/kel, where kel is the elimination rate constant derived from the slope of the log concentration versus time profile. The area under the concentration–time curve from 0 h to the last time point (AUC0-tlast) was calculated by linear trapezoidal approximation. Clearance (CL) was estimated as Dose/AUC0-tlast and the steady state volume of distribution (Vd,ss) was estimated as CL* MRT, where MRT = AUMC/AUC (MRT = mean residence time and AUMC = area under the moment curve). Oral bioavailability (F) was determined from ETX1317 concentrations and normalizing doses to free acid equivalence, where F = AUCp.o.*(dosei.v.)/AUCi.v.*(dosep.o.).

[2] = Intravenous pharmacokinetics of ETX1317; format: in vivo, monkey
Procedure: as §1
Blood sampling (∼1 mL) for dogs and monkeys was carried out via venipuncture of the jugular vein at the following time points:
i.v.: pre-dose, 0.083, 0.25 (prior to end of infusion), 0.5, 1, 1.5, 2, 4, 6, 8, 12, and 24 h post-dose
Blood samples were centrifuged at 3200 rpm for 10 min at approximately 5 °C. Plasma samples (500 μL) were transferred to 96-well plate tubes (MatrixTech, 0.5 mL). An equal amount (500 μL) of SIGMAFAST protease inhibitor solution (1 tablet dissolved in 10 mL distilled water, Sigma-Aldrich Part No. S8820) was added as a preservative to the 96-well plate tubes resulting in a 1:1 dilution. Diluted plasma samples were stored at −80 ± 10 °C.
as §2, §3

[3] = male, Sprague-Dawley, rat, plasma, iv
[4] = male, monkey, plasma, iv, i.v. 0.87 mg/kg

With CC1=C[C@@H](C(N)=O)N2C[C@@H]1N(O[C@H](F)C(=O)O)C2=O [ETX1317] the CL ([1]; 10 mg/kg) was 23.1 ± 1.1 mL/min/kg, the clearance ([1]; male, Sprague-Dawley, rat, plasma, iv, 10 mg/kg, read-out: CL) was 23 mL/min/kg and the AUC [1, 3] was 7190 ± 340 ng·h/mL. For the same compound, the Cmax [1, 3] was 17500 ± 2000 ng/mL, the half-life [1, 3] was 24 ± 1.2 min and the Vd ([1]; male, Sprague-Dawley, rat, plasma, iv, read-out: Vd,ss) was 0.7 ± 0.01 L/kg. The clearance ([1]; male, Sprague-Dawley, rat, urine and plasma, iv, 10 mg/kg, read-out: renal CL) was 13.4 ± 0.3 mL/min/kg, the “renal clearance as % of total clearance” value ([2]; based upon excretion in the urine, range 23–63%) was ~40% and the AUC [2, 4] was 2680 ± 210 ng·h/mL. For the same compound, the Cmax [2, 4] was 3120 ± 230 ng/mL, the half-life [2, 4] was 66 ± 6 min and the clearance ([2]; male, monkey, plasma, iv, i.v. 0.87 mg/kg, read-out: CL) was 5.7 ± 0.7 mL/min/kg. It also gave a Vd ([2]; male, monkey, plasma, iv, i.v. 0.87 mg/kg, read-out: Vd,ss) of 0.31 ± 0.02 L/kg and a clearance ([2]; male, monkey, urine and plasma, iv, i.v. 0.87 mg/kg, read-out: renal CL) of 2.2 mL/min/kg.
